What was measured:
[1] = test system: human synovial cells (HFLS); experiment: Anti-proliferative effect on synovial cells stimulated by TNF-α ([3H]-deoxyuridine uptake); assay type: cell-based; details: TNF-α 10 ng/mL, 5 days culture, concentration calculated as MTX from conjugation rate
Description: An effect of the HA-MTX conjugates of the invention on cell proliferation induced by TNF-α stimulation was examined using human synovial cells (HFLS). The main lesion in rheumatoid arthritis (RA) occurs in the synovial tissue, and, as one of the features, it is known that synovial cells abnormally proliferate to form a granulation tissue (pannus) and thereby destroy the cartilage and bone of the joint. Secondary synovitis is also observed in osteoarthritis (OA). […] Thus, a compound inhibiting the proliferation of synovial cells stimulated by the inflammatory cytokine TNF-α suppresses the progression of the pathologic conditions of RA and OA and becomes a therapeutic drug therefor. The sterile aqueous solutions of the HA-MTX conjugates in Example 2 (Table 2) were used as test substances. HFLS (CA40405, Lot Nos. 1413 and 1493) was purchased from Cell Applications Ins. for use. HFLS was seeded at 5,000 cells/well on a 96-well plate (Falcon) and cultured for 3 hours in Iscove's modified Dulbecco's medium (IMDM) containing 5% FBS and 1× Antibiotic-Antimycotic (GIBOC). After cellular attachment, TNF-α (final concentration: 10 ng/mL) and each HA-MTX conjugate at each concentration was added, followed by cultivation for 5 days. Two days before the end of culture, was added 37 kBq/well of [^3H]-deoxyuridine in the cells (MORAVEK), followed by determining the uptake quantity (radioactivity) of [^3H]-deoxyuridine using a scintillation counter. Cells were recovered by unsticking them with 0.05% trypsin-0.2% EDTA. Radioactivity determined in each of the experiments with each test substance was calculated as a relative value (% of control), using, as control, radioactivity in the group of cells cultured without adding any test substance. […] GraphPad Prism 3.02).

[2] = test system: mBSA-induced monoarthritis model; experiment: Suppressive effect on knee joint swelling in mBSA-induced monoarthritis model; assay type: in vivo, rat; details: for suppressive effect on joint swelling / alleviating effect on synovitis: Experimental Example 4: conjugate vs equal amount of MTX vs mixture HA+MTX, FIGS. 2 and 3; for AUC (% of control) (mean ± SEM): AUC of knee joint swelling to two weeks after induction, control = HA-treated group, 50 μL into right knee joint 7 and 1 day before and 7 days after induction
Procedure: An in vivo synovitis-suppressing effect of each HA-MTX conjugate of the invention was assessed on the basis of a suppressive effect on knee joint swelling in a methylated bovine serum albumin (mBSA)-induced monoarthritis model of rat. Since the mBSA-induced arthritis model employed in this experimental example is widely used as an antigen-induced arthritis model, and known to develop synovitis (Sven E. Andersson, et al., The Journal of Rheumatology (1998) 25: 9, 1772-7), the in vivo knee joint swelling-suppressing effect observed in this model conceivably represents a synovitis-suppressing effect. The compounds of the invention suppressing synovitis in vivo are useful as therapeutic drugs for joint diseases accompanied by synovitis (RA, OA, and the like).
The animal used was the LEW/Crj rat (6-week old male, from Charles River Laboratories Japan, Inc.). Into the flank of the rat was subcutaneously injected 0.5 mL of an emulsion prepared from a 2 mg/mL mBSA (Calbiochem) aqueous solution and an equal amount of Freund's complete adjuvant (Difco) 21 and 14 days before inducing arthritis. The arthritis was induced by administering 50 μL of a 2 mg/mL mBSA aqueous solution into the right knee joint. The left knee joint was untreated, and served as control in each individual. Each test substance (sterile aqueous solution) and the control drug hyaluronic acid were each administered into the right knee joint in an amount of 50 μL 7 and 1 day before and 7 days after inducing arthritis.
The determination of knee joint swelling involved measuring the widths of both knee joints with calipers to define the left/right difference (right knee diameter-left knee diameter) as a knee joint swelling. The width of each knee joint was measured at a frequency of twice a week from immediately before inducing arthritis to two weeks later to calculate AUC (an abbreviation for Area Under the Curve; here, it means an area under a curve with time for the joint swelling) from the transition thereof with time. At each measurement, the mean and standard deviation of AUC were calculated to perform an unpaired t-test between each test substance-treated group and the HA-treated group, and significant difference was judged to be present if the probability level is less than 5%. Statistical analysis used SAS version 6.12 (SAS Institute Japan). In addition, the AUC of each test substance was calculated, using that in the HA-treated group as a control, as a relative value (% of control) therefor.
To verify the usefulness of the HA-MTX conjugate of the invention, the suppressive effect on joint swelling was compared, in accordance with the method of Example 3, among: 1) a group treated with the HA-MTX conjugate (sterile aqueous solution) prepared in Example 2-2; 2) a group treated with a solution containing MTX of an amount equal to that of MTX contained in the HA-MTX conjugate; and 3) a group of treated with a mixture (HA+MTX) of MTX and hyaluronic acid (HA) of amounts equal to those contained in the conjugate. The transition of knee joint swelling with time in this test is shown in FIG. 2, and the AUC thereof in FIG. 3.

[3] = Measurement of viscoelasticity; assay type: physicochemical; details: sterile solutions, 37° C., cone 4 cm, CSL500 stress-controlled rheometer; FIG. 1
Procedure: The viscoelasticities of the sterile solutions of hyaluronic acids (molecular weights: 1,900,000 and 800,000) and the conjugates of Examples 2-1, 2-8, 2-18, 2-27, and 2-29 were measured at 37° C. using a cone 4 cm in diameter by a CSL500 stress-controlled rheometer (from Carri-Med Ltd.).

[4] = test system: collagenase-induced arthritis (OA) model; experiment: Suppressive effect on knee joint swelling in collagenase-induced arthritis (OA) model; assay type: in vivo, rat; details: AUC of knee joint swelling to 20 days after induction; 50 μL into right knee joint once a week from 7 and 1 day before induction; compared with HA-treated group
Procedure: An in vivo synovitis-suppressing effect of the HA-MTX conjugate was evaluated in collagenase-induced OA model rats. The collagenase-induced OA model is a model in which inflammation has been induced within the knee joint by injecting collagenase into the knee joint to directly digest collagen in cartilage tissue. […] Therefore, the compound of the invention suppressing inflammation in the model and inhibiting cartilage degeneration therein will be useful as a therapeutic drug for OA.
The animal used was the SD/Crj rat (6-week old male, from Charles River Laboratories Japan, Inc.). Into the articular cavity of the right knee was administered 50 μL of 1.5% collagenase (Sigma) solution to induce arthritis. The left knee joint was untreated to use as a control in each individual. Each test substance was administered into the right knee joint in an amount of 50 μL once a week from 7 and 1 day before inducing arthritis.
The determination of knee joint swelling involved measuring the widths of both knee joints with calipers to determine the left/right difference (right knee diameter-left knee diameter), which was defined as a knee joint swelling. The width of each knee joint was measured on the order of twice a week from immediately before inducing arthritis to 20 days later to calculate AUC from a graph showing the transition thereof with time. At each measurement, the mean and standard error of the mean of AUC were calculated to perform an unpaired t-test between each test substance-treated group and the HA-treated group, and significant difference was judged to be present if the probability level is less than 5%.

Compound	IC50 [1]	AUC (% of control) (mean ± SEM) [2]	other results
CN(Cc1cnc2nc(N)nc(N)c2n1)c1ccc(C(=O)N[C@@H](CCC(=O)O)C(=O)O)cc1 [MTX alone, methotrexate]	0.055 µM	–	suppressive effect on joint swelling / alleviating effect on synovitis [2]: neither MTX alone nor the mixture of HA and MTX had a sufficient alleviating effect on synovitis
MTX-α-AsnPhePhe-NHC10H20O3NH-HA [Example 2-47]	1.1 µM	42.1 ± 6.3 % of control	–
MTX-α-Glu-NHC2H4NH-HA [Example 2-30]	54 µM	58.3 ± 7.4 % of control	–
MTX-α-Glu-NHC10H20O3NH-HA [Example 2-29]	8.4 µM	68.8 ± 6.7 % of control	viscoelasticity [3]: viscoelasticities intermediate between those of the hyaluronic acids having molecular weights of 800,000 and 1,900,000
MTX-α-His-NHC10H20O3NH-HA [Example 2-36]	17 µM	–	–
MTX-α-Ile-NHC2H4NH-HA [Example 2-28]	12 µM	63.5 ± 4.7 % of control	–
MTX-α-Leu-NHC10H20O3NH-HA [Example 2-34]	3.6 µM	–	–
MTX-α-Phe-NHC10H20O3NH-HA [Example 2-26]	1.7 µM	–	–
MTX-α-PheGly-NHC4H8ONH-HA [Example 2-22]	3 µM	–	–
MTX-α-PheGly-NHC6H12O2NH-HA [Example 2-21]	0.83 µM	47.4 ± 8.8 % of control	–
MTX-α-PheGly-NHC8H16O2NH-HA [Example 2-20]	18 µM	65.3 ± 9.6 % of control	–
MTX-α-PheGly-NHC10H20O2NH-HA [Example 2-19]	5.4 µM	–	–
MTX-α-PheGly-NHC10H20O3NH-HA [Example 2-15]	0.48 µM	–	–
MTX-α-PheGly-NHC10H20O3NH-HA [Example 2-16]	13 µM	–	–
MTX-α-PheGly-NHC10H20O3NH-HA [Example 2-17]	13 µM	56.1 ± 8.2 % of control	–
MTX-α-PhePhe-Lys-HA [Example 2-14]	15 µM	54.3 ± 7.4 % of control	–
MTX-α-PhePhe-NHC2H4NH-HA [Example 2-2]	0.14 µM	45.0 ± 6.8 % of control	suppressive effect on joint swelling / alleviating effect on synovitis [2]: markedly strong suppressive effect on the joint swelling in the arthritis model compared to that of MTX alone or the mixture of MTX and HA; AUC (% of control) (mean ± SEM) [4]: 48.9 ± 3.7 % of control
MTX-α-PhePhe-NHC2H4NH-HA [Example 2-2′]	0.72 µM	65.5 ± 7.5 % of control	–
MTX-α-PhePhe-NHC2H4NH-HA [Example 2-3]	–	76.2 ± 7.7 % of control	–
MTX-α-PhePhe-NHC2H4NH-HA [Example 2-4]	11 µM	69.0 ± 6.5 % of control	–
MTX-α-PhePhe-NHC2H4NH-HA [Example 2-5]	1.1 µM	51.7 ± 3.8 % of control	–

Compound	IC50 [1]	AUC (% of control) (mean ± SEM) [2]	other results
MTX-α-PhePhe-NHC2H4NH-HA [Example 2-6]	0.091 µM	41.6 ± 7.6 % of control	–
MTX-α-PhePhe-NHC2H4NH-HA [Example 2-7]	–	46.5 ± 4.8 % of control	–
MTX-α-PhePhe-NHC4H80NH-HA [Example 2-12]	0.3 µM	–	–
MTX-α-PhePhe-NHC5H10NH-HA [Example 2-13]	1.5 µM	60.5 ± 9.9 % of control	–
MTX-α-PhePhe-NHC6H12O2NH-HA [Example 2-11]	0.25 µM	–	–
MTX-α-PhePhe-NHC8H16O2NH-HA [Example 2-10]	1.2 µM	63.7 ± 9.1 % of control	–
MTX-α-PhePhe-NHC10H20O2NH-HA [Example 2-9]	1.3 µM	–	–
MTX-α-PhePhe-NHC10H20O3NH-HA [Example 2-49]	13 µM	–	–
MTX-α-PhePro-NHC10H20O3NH-HA [Example 2-23]	12 µM	–	–
MTX-α-PheβAla-NHC2H4NH-HA [Example 2-25]	0.29 µM	–	–
MTX-α-PheβAla-NHC10H20O3NH-HA [Example 2-24]	3.5 µM	–	–
MTX-α-Ser-NHC10H20O3NH-HA [Example 2-33]	36 µM	–	–
MTX-α-Trp-NHC10H20O3NH-HA [Example 2-32]	4.7 µM	–	–
MTX-α-Tyr-NHC10H20O3NH-HA [Example 2-31]	7 µM	67.7 ± 6.2 % of control	–
MTX-α-Val-NHC10H20O3NH-HA [Example 2-35]	11 µM	–	–
MTX-α-βAla-NHC10H20O3NH-HA [Example 2-38]	–	69.3 ± 4.2 % of control	–
MTX-α/γ-GlyPheLeuGly-NHC10H20O3NH-HA (methotrexate-GFLG-{NHC10H20O3NH-hyaluronic acid}; also: methotrexate linked via α- or γ-carboxyl) [Example 2-48]	1.3 µM	58.8 ± 11.6 % of control	–
MTX-γ-PheGly-NHC10H20O3NH-HA [Example 2-42]	14 µM	–	–
MTX-γ-PhePhe-NHC4H8ONH-HA [Example 2-41]	–	67.1 ± 8.3 % of control	–
MTX-γ-PhePhe-NHC10H20O3NH-HA [Example 2-39]	3.2 µM	–	–

Source: patent US8088916B2, “Hyaluronic acid-methotrexate conjugate” (priority 2004, dated 2012)
